For assay [1], the system named is CGAS. Description: CGAS whole blood cytokine release assay (384-well, BacMam stimulation, IP-10 by cytometric bead array). The assay is classed as cell-based. Conditions: Homo sapiens, 6 h; read-out: hWB pXC50 (converted). Summed up:
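Heparinised human donor whole blood mixed with serially diluted compound plus Null BacMam stimulus, incubated 6 h at 37° C, 5% CO2. Supernatant IP-10 quantified by cytometric bead array on flow cytometer (488 nm excitation, 585/40 nm emission); inhibition of IP-10 calculated.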

Assay [2] deals with human CGAS (157-522) (Homo sapiens, UniProt Q8N884). Description: biochemical.
Chain of human CGAS (157-522) (Q8N884 157-522): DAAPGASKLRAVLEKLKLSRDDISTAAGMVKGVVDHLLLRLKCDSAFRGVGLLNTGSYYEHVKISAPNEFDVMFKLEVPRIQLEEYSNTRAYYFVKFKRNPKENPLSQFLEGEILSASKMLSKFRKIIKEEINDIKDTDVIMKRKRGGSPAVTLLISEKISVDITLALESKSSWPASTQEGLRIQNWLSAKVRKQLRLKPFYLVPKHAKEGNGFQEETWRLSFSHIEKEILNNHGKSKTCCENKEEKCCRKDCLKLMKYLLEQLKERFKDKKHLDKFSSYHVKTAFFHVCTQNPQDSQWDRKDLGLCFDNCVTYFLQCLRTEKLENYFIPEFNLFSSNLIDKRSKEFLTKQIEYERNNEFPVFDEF
Experimental: Compounds were serially diluted 2, 3, or 4-fold in neat DMSO to generate 11-point dose response curves and then 250 nL compound or DMSO solution was transferred to Greiner 384-well V-bottom assay plates (Catalog #781280) using an Echo acoustic dispenser (Labcyte). A solution of 150 μM ATP, 150 μM GTP, 20 μM pppGpA (GTP-2′5′-AMP, custom synthesis from ChemGenes), and 10 μg/mL sheared salmon sperm DNA (Sigma, Catalog #D1626) in assay buffer (20 mM Trizma, pH 7.5, 10 mM magnesium chloride, 0.3 mM CHAPS, and 0.01% (w/v) bovine serum albumin) was added to columns 1-17, 19-24 of the plate at 12.5 μL/well using a Combi liquid handler (ThermoFisher). A 12.5 μL/well low control solution containing 150 μM ATP, 150 μM GTP, 20 μM pppGpA in assay buffer was added to column 18 using the Combi. A 12.5 μL/well solution of 10-100 nM human CGAS (157-522) in assay buffer was then added to all wells of the plate using the Combi. […] Reactions were quenched by added 50 μL/well of 0.5% (v/v) trifluoroacetic acid (TFA) in mass spectrometry grade deionized water containing 5 μM cyclic-di-UMP (ci-di-UMP; Invivogen Catalog #tlrl-cdu) as the internal standard (IS). Plates were centrifuged for 1 min and then quenched reactions were analyzed using a RF-MS 300 system operating in a Multiple Reaction Monitoring (MRM) detection mode.
Samples (10 μL injection volume) were passed over a silica C18/type C solid phase extraction (SPE) cartridge for analyte (2′3′-cyclic guanosine monophosphate adenosine monophosphate (2′3′-cGAMP), product of biochemical reaction)/pppGpA/c-di-UMP IS adsorption. Adsorbed samples were desalted for 3000 ms using a 100% water eluent A/desalting solution. Afterwards, desalted samples were eluted using a 0.5% TFA in 20%/80% acetonitrile/water eluent B/elution solution directly into either a Sciex 4000, 5000 or 5500 triple quadrupole mass spectrometer (QQQ-MS) for MRM analyte/IS detection. QQQ-MS detection conditions were as follow: scan type: MRM; curtain (CUR) gas: 30 psi; nebulizer (GS1) gas: 50 psi; drying (GS2) gas: 60 psi; collisionally activated dissociation (CAD) gas: 12 relative setting; precursor ion (Q1) masses: 2′3′-cGAMP: m/z 675.1 Da/pppGpA: m/z 853.0 Da/c-di-UMP: m/z 613.1 Da; fragment ion (Q3) masses: 2′3′-cGAMP: m/z 524.1 Da/pppGpA: m/z 702.0 Da/c-di-UMP: 307.1 Da; declustering potentials (DPs): 2′3′-cGAMP: +81 V/pppGpA: +85 V/c-di-UMP: +85 V; entrance potential: +10 V (all analytes); collision energies (CEs): 2′3′-cGAMP: +33 V/pppGpA: +36 V/c-di-UMP: +35 V; collision cell exit potential (CXP): +10 V (all analytes); interface heater (Sciex 4000/5000 only): on; Q1 resolution: unit (all analyte); Q3 resolution: unit (all analytes). The area under the curve (AUC) for all analytes was obtained using the RapidFire Integrator software application to calculate AUC-2′3′-cGAMP/AUC-c-di-UMP intensity ratio. Percent product formation was calculated by comparison to column 6 (high control)/column 18 (low control) responses. The % product inhibition was calculated as follows:
[formula] where A is the minimum response, B is the maximum response, C is the log10*XC50, D is the slope factor, and x is the log10 compound concentration [M] in ABASE XE.

With `FC(F)(F)c1n[nH]c(-c2nc3ncc(COCC4CC45CCOC5)cn3c2-c2c[nH]cn2)n1` (stereo not shown) [Example 155, 5-[3-(1H-imidazol-4-yl)-6-[{{5-oxaspiro[2.4]heptan-1-yl}methoxy)methyl]imidazo[1,2-a]pyrimidin-2-yl]-3-(trifluoromethyl)-1H-1,2,4-triazole], the figures for the IC50 in assay [1] and in assay [2] were 501 nM and 7.94 nM, respectively.
Taken in the same sequence, the figures for `FC(F)c1ccn2c(-c3cnc[nH]3)c(-c3nc(C(F)(F)F)n[nH]3)nc2n1` [Example 95, 5-[7-(difluoromethyl)-3-(1H-imidazol-5-yl)imidazo[1,2-a]pyrimidin-2-yl]-3-(trifluoromethyl)-1H-1,2,4-triazole] were 398 nM and 10 nM.
For the molecule `FC(F)(F)c1n[nH]c(-c2nc3nc4c(cn3c2-c2cnc[nH]2)CNCC4)n1` [Example 74, 6-(1H-imidazol-5-yl)-5-[3-(trifluoromethyl)-1H-1,2,4-triazol-5-yl]-2,4,7,11-tetraazatricyclo[7.4.0.0^3,^7]trideca-1,3,5,8-tetraene], the IC50 was 1260 nM in assay [1] and 7.94 nM in assay [2].
For the molecule `FC(F)(F)c1n[nH]c(-c2nc3nc4c(cn3c2-c2cnc[nH]2)CCCC4)n1` [Example 134, 5-[3-(1H-imidazol-5-yl)-6H,7H,8H,9H-imidazo[2,1-b]quinazolin-2-yl]-3-(trifluoromethyl)-1H-1,2,4-triazole], the IC50 in assay [1] was 398 nM; in assay [2] it was 3.98 nM.
In the same order, the values of `FC(F)(F)c1n[nH]c(-c2nc3nc4c(cn3c2-c2cnc[nH]2)CSCC4)n1` [Example 103, 6-(1H-imidazol-5-yl)-5-[3-(trifluoromethyl)-1H-1,2,4-triazol-5-yl]-11-thia-2,4,7-triazatricyclo[7.4.0.03,7]trideca-1,3,5,8-tetraene] are 251 nM and 1.26 nM.
For `FC(F)(F)c1n[nH]c(-c2nc3ncc(OCC4CCOC4)cn3c2-c2c[nH]cn2)n1` (stereo not shown) [Example 135, 5-[3-(1H-imidazol-4-yl)-6-[(oxolan-3-yl)methoxy]imidazo[1,2-a]pyrimidin-2-yl]-3-(trifluoromethyl)-1H-1,2,4-triazole], the results for the IC50 in assay [1] and in assay [2] were 631 nM and 3.16 nM, respectively.
Taken in the same sequence, the figures for `N#CCCOCc1cnc2nc(-c3nc(C(F)(F)F)n[nH]3)c(-c3cnc[nH]3)n2c1` [Example 105, 3-{[3-(1H-imidazol-5-yl)-2-[3-(trifluoromethyl)-1H-1,2,4-triazol-5-yl]imidazo[1,2-a]pyrimidin-6-yl]methoxy}propanenitrile] were 1000 nM and 3.16 nM.
For the molecule `CC(=O)OCn1cnc(-c2c(-c3nc(C(F)(F)F)nn3COC(C)=O)nc3ncccn23)c1` [Example 84, [5-(3-{1-[(acetyloxy)methyl]-1H-imidazol-4-yl}imidazo[1,2-a]pyrimidin-2-yl)-3-(trifluoromethyl)-1H-1,2,4-triazol-1-yl]methyl acetate], the figures for the IC50 in assay [1] and in assay [2] were 158 nM and 15800 nM, respectively.
For the molecule `Fc1cnc2nc(-c3nc(C(F)(F)F)n[nH]3)c(-c3cn[nH]c3)n2c1` [Example 38, 5-[6-fluoro-3-(1H-pyrazol-4-yl)imidazo[1,2-a]pyrimidin-2-yl]-3-(trifluoromethyl)-1H-1,2,4-triazole], the IC50 was 1000 nM in assay [1] and 7.94 nM in assay [2].
Taken in the same sequence, the figures for `FC(F)(F)c1n[nH]c(-c2nc3ncc(COC4CCC4)cn3c2-c2c[nH]cn2)n1` [Example 157, 5-[6-(cyclobutoxymethyl)-3-(1H-imidazol-4-yl)imidazo[1,2-a]pyrimidin-2-yl]-3-(trifluoromethyl)-1H-1,2,4-triazole] were 251 nM and 2.51 nM.
In the same order, the values of `FC(F)c1n[nH]c(-c2nc3ncccn3c2-c2cn[nH]c2)n1` [Example 90, 3-(difluoromethyl)-5-[3-(1H-pyrazol-4-yl)imidazo[1,2-a]pyrimidin-2-yl]-1H-1,2,4-triazole] are 1000 nM and 10 nM.

For the origin of these results see patent publication US12247033B2, “Triazole-substituted imidazo[1,2-a]pyrimidines as cGAS inhibitors” (GlaxoSmithKline Intellectual Property Development Limited, priority 2022, dated 2025).
